Measured values from ChEMBL document CHEMBL5052843, “Inhibitors of apol1 and methods of using same” (2020).

Tests used:
[1] = molecular target: Apolipoprotein L1 (Homo sapiens, UniProt O14791); assay: Inhibition of APOL1 G1 variant in human HEK293-T-REx cells measured by Thallium assay; assay type: cell-based
[2] = system: Trypanosoma brucei brucei; assay: Antitrypanosomal activity against Trypanosoma brucei brucei assessed as trypanosome lysis using recombinant APOL1 protein G1 variant and measured by Alamar blue based fluorescene assay; assay type: functional, organism-based

O=C(CCc1c(-c2ccccc2)[nH]c2c(F)cccc12)N[C@@H]1C(=O)NC[C@H]1O
IC50 [1]: < 250 nM | IC50 [2]: < 250 nM

O=C(CCc1c(-c2ccccc2)[nH]c2cc(F)c(F)cc12)N[C@@H]1C(=O)NC[C@H]1O
IC50 [1]: < 250 nM | IC50 [2]: < 250 nM

COc1ccc(-c2[nH]c3ccccc3c2CCC(=O)N[C@@H]2C(=O)NC[C@H]2O)cc1
IC50 [1]: < 250 nM | IC50 [2]: < 250 nM

O=C(CCc1c(-c2cc(F)cc(F)c2)[nH]c2c(F)cc(F)cc12)N[C@@H]1C(=O)NC[C@H]1O
IC50 [1]: < 250 nM | IC50 [2]: 250 nM

O=C(CCc1c(-c2ccccc2)[nH]c2c(F)c(F)c(F)cc12)N[C@@H]1C(=O)NC[C@H]1O
IC50 [1]: < 250 nM | IC50 [2]: < 250 nM

Cc1cc(-c2[nH]c3ccccc3c2CCC(=O)N[C@@H]2C(=O)NC[C@H]2O)ccc1F
IC50 [1]: < 250 nM | IC50 [2]: < 250 nM

O=C(CCc1c(-c2ccc(F)cc2)[nH]c2ccccc12)N[C@@H]1C(=O)NC[C@H]1O
IC50 [1]: < 250 nM | IC50 [2]: < 250 nM

O=C(CCc1c(-c2ccc(OC(F)(F)F)cc2)[nH]c2ccccc12)N[C@@H]1C(=O)NC[C@H]1O
IC50 [1]: < 250 nM | IC50 [2]: < 250 nM

O=C(CCc1c(-c2ccc(F)cc2)[nH]c2c(F)c(F)ccc12)N[C@@H]1C(=O)NC[C@H]1O
IC50 [1]: < 250 nM | IC50 [2]: < 250 nM

O=C1NC[C@@H](O)[C@@H]1NC(=O)C(F)(F)Cc1c(-c2ccc(F)cc2)[nH]c2c(F)cc(F)cc12
IC50 [1]: < 250 nM | IC50 [2]: < 250 nM

O=C(CCc1c(-c2ccc(C(F)(F)F)cc2)[nH]c2ccccc12)N[C@@H]1C(=O)NC[C@H]1O
IC50 [1]: < 250 nM | IC50 [2]: < 250 nM

O=C(CCc1c(-c2ccccc2)[nH]c2cccc(F)c12)N[C@@H]1C(=O)NC[C@H]1O
IC50 [1]: < 250 nM | IC50 [2]: 250 nM

O=C(CCc1c(-c2ccccc2)[nH]c2c(Br)cccc12)N[C@@H]1C(=O)NC[C@H]1O
IC50 [1]: < 250 nM | IC50 [2]: < 250 nM

Cc1ccc(-c2[nH]c3ccccc3c2CCC(=O)N[C@@H]2C(=O)NC[C@H]2O)cc1F
IC50 [1]: < 250 nM | IC50 [2]: < 250 nM

O=C(CCc1c(-c2ccc(F)cc2)[nH]c2ccc(C(F)(F)F)cc12)N[C@@H]1C(=O)NC[C@H]1O
IC50 [1]: < 250 nM | IC50 [2]: < 250 nM

O=C(CCc1c(-c2ccc(F)cc2)[nH]c2c(F)cccc12)N[C@H]1CCNC1=O
IC50 [1]: < 250 nM | IC50 [2]: < 250 nM

O=C(CCc1c(-c2ccc(F)cc2)[nH]c2c(Cl)cccc12)N[C@@H]1C(=O)NC[C@H]1O
IC50 [1]: < 250 nM | IC50 [2]: < 250 nM

O=C(CCc1c(-c2ccccc2)[nH]c2c(C(F)(F)F)cccc12)N[C@@H]1C(=O)NC[C@H]1O
IC50 [1]: 250 nM | IC50 [2]: > 1000 nM

Cc1ccc(-c2[nH]c3ccccc3c2CCC(=O)N[C@@H]2C(=O)NC[C@H]2O)c(F)c1
IC50 [1]: < 250 nM | IC50 [2]: < 250 nM

Cc1c(F)c(F)cc2c(CCC(=O)N[C@@H]3C(=O)NC[C@H]3O)c(-c3ccccc3)[nH]c12
IC50 [1]: < 250 nM | IC50 [2]: < 250 nM

O=C(CCc1c(-c2ccc(F)cc2)[nH]c2ccc(OCc3ccccc3)cc12)N[C@H]1CCNC1=O
IC50 [1]: 250 nM | IC50 [2]: 250 nM

CN(C(=O)CCc1c(-c2ccc(F)cc2)[nH]c2ccc(F)cc12)C1CCNC1=O (stereo not given)
IC50 [1]: 250 nM | IC50 [2]: 250 nM

O=C(CCc1c(-c2ccccc2)[nH]c2ccc(F)cc12)N[C@@H]1C(=O)NC[C@H]1O
IC50 [1]: < 250 nM | IC50 [2]: < 250 nM

O=C(CCc1c(-c2cccc(F)c2)[nH]c2c(F)cc(F)cc12)N[C@@H]1C(=O)NC[C@H]1O
IC50 [1]: < 250 nM | IC50 [2]: < 250 nM

[2H]C([2H])(C(=O)N[C@@H]1C(=O)NC[C@H]1O)C([2H])([2H])c1c(-c2ccc(F)cc2)[nH]c2c(F)cc(F)cc12
IC50 [1]: < 250 nM | IC50 [2]: < 250 nM

O=C(CCc1c(-c2ccccc2)[nH]c2c(F)c(F)ccc12)N[C@@H]1C(=O)NC[C@H]1O
IC50 [1]: < 250 nM | IC50 [2]: < 250 nM

O=C(CCc1c(-c2ccccc2)[nH]c2cc(F)cc(F)c12)N[C@@H]1C(=O)NC[C@H]1O
IC50 [1]: < 250 nM | IC50 [2]: < 250 nM

N#Cc1ccc(-c2[nH]c3ccccc3c2CCC(=O)N[C@@H]2C(=O)NC[C@H]2O)cc1
IC50 [1]: < 250 nM | IC50 [2]: < 250 nM

O=C(CCc1c(-c2ccc(F)cc2)[nH]c2c(Cl)cccc12)N[C@H]1CCNC1=O
IC50 [1]: < 250 nM | IC50 [2]: < 250 nM

O=C(CCc1c(-c2ccc(Cl)cc2)[nH]c2ccccc12)N[C@@H]1C(=O)NC[C@H]1O
IC50 [1]: < 250 nM | IC50 [2]: < 250 nM

O=C(CCc1c(-c2cc(F)cc(F)c2)[nH]c2ccccc12)N[C@@H]1C(=O)NC[C@H]1O
IC50 [1]: 250 nM | IC50 [2]: 250 nM

O=C(CCc1c(-c2ccc(F)cc2)[nH]c2ccc(F)cc12)N[C@@H]1CCNC1=O
IC50 [1]: 250 nM | IC50 [2]: 250 nM

Cc1ccc(-c2[nH]c3ccccc3c2CCC(=O)N[C@@H]2C(=O)NC[C@H]2O)cc1
IC50 [1]: < 250 nM | IC50 [2]: < 250 nM

O=C(CCc1c(-c2ccc(F)c(F)c2)[nH]c2ccccc12)N[C@@H]1C(=O)NC[C@H]1O
IC50 [1]: < 250 nM | IC50 [2]: < 250 nM

O=C(CCc1c(-c2ccc(F)c(F)c2)[nH]c2c(F)cc(F)cc12)N[C@@H]1C(=O)NC[C@H]1O
IC50 [1]: < 250 nM | IC50 [2]: < 250 nM

O=C(CCc1c(-c2ccc(F)cc2)[nH]c2c(F)cccc12)N[C@@H]1C(=O)NC[C@H]1O
IC50 [1]: < 250 nM | IC50 [2]: < 250 nM

O=C(CCc1c(-c2ccc(F)cc2)[nH]c2c(F)cc(C(F)(F)F)cc12)N[C@@H]1C(=O)NC[C@H]1O
IC50 [1]: < 250 nM | IC50 [2]: < 250 nM

O=C(CCc1c(-c2ccc(F)cc2)[nH]c2ccc(F)cc12)NC1CCNC1=O (stereo not given)
IC50 [1]: < 250 nM | IC50 [2]: < 250 nM

O=C(CCc1c(-c2ccc(C(F)F)cc2)[nH]c2ccccc12)N[C@@H]1C(=O)NC[C@H]1O
IC50 [1]: < 250 nM | IC50 [2]: < 250 nM

O=C(CCc1c(-c2ccccc2)[nH]c2ccccc12)N[C@@H]1C(=O)NC[C@H]1O
IC50 [1]: < 250 nM | IC50 [2]: < 250 nM

O=C(CCc1c(-c2ccccc2)[nH]c2ccc(F)cc12)N[C@H]1CCNC1=O
IC50 [1]: < 250 nM | IC50 [2]: < 250 nM

O=C(CCc1c(-c2ccc(OC(F)F)cc2)[nH]c2c(F)cc(F)cc12)N[C@@H]1C(=O)NC[C@H]1O
IC50 [1]: < 250 nM | IC50 [2]: < 250 nM

[2H]C(C(=O)N[C@@H]1C(=O)NC[C@H]1O)C([2H])c1c(-c2ccc(F)cc2)[nH]c2c(F)cc(F)cc12 (stereo not given in full)
IC50 [1]: < 250 nM | IC50 [2]: < 250 nM

O=C(CCc1c(-c2ccc(F)cc2)[nH]c2c(F)ccc(F)c12)N[C@H]1CCNC1=O
IC50 [1]: > 1000 nM | IC50 [2]: > 1000 nM

O=C(CCc1c(-c2ccc(F)cc2)[nH]c2ccc(O)cc12)N[C@H]1CCNC1=O
IC50 [1]: > 1000 nM | IC50 [2]: > 1000 nM

Cc1c(F)c(F)cc2c(CCC(=O)N[C@@H]3C(=O)NC[C@H]3O)c(-c3ccc(F)cc3)[nH]c12
IC50 [1]: < 250 nM | IC50 [2]: < 250 nM

O=C(CCc1c(-c2ccc(Cl)c(F)c2)[nH]c2ccccc12)N[C@@H]1C(=O)NC[C@H]1O
IC50 [1]: < 250 nM | IC50 [2]: < 250 nM

O=C(CCc1c(-c2ccccc2)[nH]c2cc(F)ccc12)N[C@@H]1C(=O)NC[C@H]1O
IC50 [1]: < 250 nM | IC50 [2]: < 250 nM

O=C(CCc1c(-c2ccc(F)cc2)[nH]c2c(OC(F)F)cc(F)cc12)N[C@@H]1C(=O)NC[C@H]1O
IC50 [1]: < 250 nM | IC50 [2]: 250 nM

O=C(CCc1c(-c2ccc(F)cc2)[nH]c2c(F)cc(F)cc12)N[C@@H]1C(=O)NC[C@H]1O [INAXAPLIN]
IC50 [1]: < 250 nM | IC50 [2]: < 250 nM
